Experiment: Test of dissolving sesamin-class compounds into fats and oils (solubility)
Type: physicochemical
Method: Solubility of sesamin-class compounds to various fats and oils was determined. Sesamin, episesamin, and a mixture of sesamin and episesamin, sesamin:episesamin=51.1:48.2 (Takemoto Oil and Fat Co., Ltd.), were used as the sesamin-class compounds. The sesamin and the episesamin were prepared by isolating them from the mixture and purifying them. The respective sesamin-class compounds were dissolved into five different kinds of fats and oils, 100 g each, shown in Table 1 to determine a limit amount (solubility) of the respective sesamin-class compounds that can be dissolved completely. It is understood from Table 1 that the sesamin, the episesamin, and the mixture of the sesamin and the episesamin have different solubilities, and that the solubility varies in a manner that depends on the types of the fats and oils.

| SMILES | Solubility in fats and oils: DG [%] | Solubility in fats and oils: MCT-1 [%] | Solubility in fats and oils: MCT-2 [%] | Solubility in fats and oils: olive oil [%] | Solubility in fats and oils: wheatgerm oil [%] |
| --- | --- | --- | --- | --- | --- |
| c1cc2c(cc1[C@H]1OC[C@H]3[C@@H]1CO[C@@H]3c1ccc3c(c1)OCO3)OCO2 [EPISESAMIN, episesamin] | 1.0 | 2.5 | 2.5 | 0.5 | 0.75 |
| c1cc2c(cc1[C@H]1OC[C@H]3[C@@H]1CO[C@@H]3c1ccc3c(c1)OCO3)OCO2 [SESAMIN, sesamin] | 1.25 | 4.0 | 2.0 | 0.75 | 0.75 |

— patent publication US20090118363A1, “SESAMIN-CLASS COMPOUND-CONTAINING FOODS OR BEVERAGES FOR ANIMALS” (priority 2006, published 2009)
